Assay results as given in US20250271426A1, “REDUCTION OF BITTER TASTE OF ACTIVE PHARMACEUTICAL INGREDIENTS AND RELATED ASSAYS AND SCREENING METHODS” (Firmenich Incorporated, priority 2022, published 2025).

Key:
Experiment in all cases: FLIPR calcium assay, cells with promiscuous G protein transfected with bitter receptor cDNA
Type in all cases: cell-based
Conditions in all cases: responsive if cellular response of >10% over baseline, Fluo4-AM
[1] = molecular target: T1, T2R receptor SEQ ID NO: 4 (S4) (Homo sapiens, UniProt Q9NYV8)
T1 construct: expressed in transfected cells; host or cells: cells expressing a promiscuous G protein (e.g., G16g44)
T1 sequence (Q9NYV8 1-317): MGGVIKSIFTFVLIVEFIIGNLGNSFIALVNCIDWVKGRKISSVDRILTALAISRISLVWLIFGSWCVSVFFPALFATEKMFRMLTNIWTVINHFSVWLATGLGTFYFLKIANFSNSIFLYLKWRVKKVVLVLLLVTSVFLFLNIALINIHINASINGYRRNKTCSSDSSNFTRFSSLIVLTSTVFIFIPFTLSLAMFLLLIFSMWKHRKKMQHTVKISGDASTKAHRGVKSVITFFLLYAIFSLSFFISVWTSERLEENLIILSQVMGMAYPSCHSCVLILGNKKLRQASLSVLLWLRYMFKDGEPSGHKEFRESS
Experimental: (§1) Cells expressing a promiscuous G protein (e.g., G16g44) were transfected with vectors encoding 22 functional bitter receptor cDNAs, with one receptor per transfection. The cells were transfected directly in 384-well format high-density plates and incubated for 28 hours. Later, cells were loaded with the Ca-specific dye Fluo4-AM. After an incubation of 60 minutes, excess dye is washed off, and cells are stimulated with respective bitter agonists while simultaneously recording changes in intracellular fluorescence using a FLIPR instrument.
(§2) The above protocol was carried out using 94 different active pharmaceutical ingredients (APIs) that span a wide range of different APIs having a diversity of chemical structures. A particular T2R receptor was identified as being responsive to a particular API if it triggered a cellular response of >10% over baseline.

[2] = molecular target: T2, T2R receptor SEQ ID NO: 5 (S5) (Homo sapiens, UniProt P59534)
T2 construct: expressed in transfected cells; host or cells: cells expressing a promiscuous G protein (e.g., G16g44)
T2 sequence (P59534 18-338): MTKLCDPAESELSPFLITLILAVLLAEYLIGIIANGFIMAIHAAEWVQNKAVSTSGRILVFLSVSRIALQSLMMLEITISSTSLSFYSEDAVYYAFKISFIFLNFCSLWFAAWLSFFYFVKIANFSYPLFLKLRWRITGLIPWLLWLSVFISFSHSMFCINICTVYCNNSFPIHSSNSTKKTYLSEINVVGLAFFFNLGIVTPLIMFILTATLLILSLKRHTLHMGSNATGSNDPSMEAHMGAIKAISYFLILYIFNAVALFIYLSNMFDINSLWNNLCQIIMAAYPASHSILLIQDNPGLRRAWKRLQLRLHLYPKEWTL
Experimental: as §1, §2

[3] = molecular target: T3, T2R receptor SEQ ID NO: 1 (S1) (Homo sapiens, UniProt Q9NYW7)
T3 construct: expressed in transfected cells; host or cells: cells expressing a promiscuous G protein (e.g., G16g44)
T3 sequence (Q9NYW7 1-299): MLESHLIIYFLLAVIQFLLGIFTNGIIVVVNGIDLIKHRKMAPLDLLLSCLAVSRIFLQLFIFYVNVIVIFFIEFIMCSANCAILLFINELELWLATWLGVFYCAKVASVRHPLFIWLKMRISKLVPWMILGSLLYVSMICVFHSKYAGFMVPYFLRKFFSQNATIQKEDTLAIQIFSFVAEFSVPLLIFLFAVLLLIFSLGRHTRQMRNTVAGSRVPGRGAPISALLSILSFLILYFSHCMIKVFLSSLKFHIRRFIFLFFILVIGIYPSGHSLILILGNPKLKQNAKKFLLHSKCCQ
Experimental: as §1, §2

[4] = molecular target: T4, T2R receptor SEQ ID NO: 6 (S6) (Homo sapiens, UniProt P59540)
T4 construct: expressed in transfected cells; host or cells: cells expressing a promiscuous G protein (e.g., G16g44)
T4 sequence (P59540 1-309): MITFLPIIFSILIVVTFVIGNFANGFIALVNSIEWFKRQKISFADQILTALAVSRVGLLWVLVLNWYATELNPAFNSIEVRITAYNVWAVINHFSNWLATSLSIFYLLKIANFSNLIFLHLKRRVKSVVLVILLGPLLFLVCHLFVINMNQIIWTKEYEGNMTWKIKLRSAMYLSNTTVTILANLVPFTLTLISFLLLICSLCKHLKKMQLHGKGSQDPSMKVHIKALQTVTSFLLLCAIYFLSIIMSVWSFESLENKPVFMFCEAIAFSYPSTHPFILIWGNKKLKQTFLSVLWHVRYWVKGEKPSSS
Experimental: as §1, §2

[5] = molecular target: T5, T2R receptor SEQ ID NO: 3 (S3) (Homo sapiens, UniProt Q9NYW0, T156M)
T5 construct: expressed in transfected cells; host or cells: cells expressing a promiscuous G protein (e.g., G16g44)
T5 sequence (Q9NYW0 1-307 T156M): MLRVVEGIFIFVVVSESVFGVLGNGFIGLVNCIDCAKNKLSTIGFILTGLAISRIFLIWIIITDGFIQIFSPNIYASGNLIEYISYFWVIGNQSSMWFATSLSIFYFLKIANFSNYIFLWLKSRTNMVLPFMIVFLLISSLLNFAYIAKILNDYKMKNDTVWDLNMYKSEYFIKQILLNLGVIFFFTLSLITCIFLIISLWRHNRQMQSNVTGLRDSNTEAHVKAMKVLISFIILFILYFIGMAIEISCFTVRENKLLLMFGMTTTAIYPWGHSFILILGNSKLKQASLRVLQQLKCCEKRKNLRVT
Experimental: as §1, §2

| Compound | S4 positive response of T2R receptor to API [1] | S5 positive response of T2R receptor to API [2] | S1 positive response of T2R receptor to API [3] | S6 positive response of T2R receptor to API [4] | S3 positive response of T2R receptor to API [5] |
| --- | --- | --- | --- | --- | --- |
| CC(=O)CC(c1ccccc1)c1c(O)c2ccccc2oc1=O (stereo not shown) [Warfarin] | + (a “+” to indicate whether a particular T2R receptor showed a positive response to a particular API) | + (a “+” to indicate whether a particular T2R receptor showed a positive response to a particular API) | + (a “+” to indicate whether a particular T2R receptor showed a positive response to a particular API) | – | – |
| OC(CCCN1CCCCC1)(c1ccccc1)c1ccccc1 [Diphenidol] | + (a “+” to indicate whether a particular T2R receptor showed a positive response to a particular API) | + (a “+” to indicate whether a particular T2R receptor showed a positive response to a particular API) | + (a “+” to indicate whether a particular T2R receptor showed a positive response to a particular API) | + (a “+” to indicate whether a particular T2R receptor showed a positive response to a particular API) | + (a “+” to indicate whether a particular T2R receptor showed a positive response to a particular API) |
| C=C[C@H]1C[N@@]2CC[C@H]1C[C@H]2[C@H](O)c1ccnc2ccc(OC)cc12 [Quinine] | + (a “+” to indicate whether a particular T2R receptor showed a positive response to a particular API) | + (a “+” to indicate whether a particular T2R receptor showed a positive response to a particular API) | – | + (a “+” to indicate whether a particular T2R receptor showed a positive response to a particular API) | + (a “+” to indicate whether a particular T2R receptor showed a positive response to a particular API) |
| CC[C@H]1OC(=O)[C@H](C)[C@@H](O[C@H]2C[C@@](C)(OC)[C@@H](O)[C@H](C)O2)[C@H](C)[C@@H](O[C@@H]2O[C@H](C)C[C@H](N(C)C)[C@H]2O)[C@](C)(OC)C[C@@H](C)C(=O)[C@H](C)[C@@H](O)[C@]1(C)O [Clarithromycin] | – | + (a “+” to indicate whether a particular T2R receptor showed a positive response to a particular API) | + (a “+” to indicate whether a particular T2R receptor showed a positive response to a particular API) | – | + (a “+” to indicate whether a particular T2R receptor showed a positive response to a particular API) |
| CC(C)(C)NC[C@H](O)COc1nsnc1N1CCOCC1 [Timolol] | – | + (a “+” to indicate whether a particular T2R receptor showed a positive response to a particular API) | + (a “+” to indicate whether a particular T2R receptor showed a positive response to a particular API) | + (a “+” to indicate whether a particular T2R receptor showed a positive response to a particular API) | + (a “+” to indicate whether a particular T2R receptor showed a positive response to a particular API) |
| CC[N+](C)(C)c1cccc(O)c1 [Edrophonium] | – | + (a “+” to indicate whether a particular T2R receptor showed a positive response to a particular API) | + (a “+” to indicate whether a particular T2R receptor showed a positive response to a particular API) | + (a “+” to indicate whether a particular T2R receptor showed a positive response to a particular API) | – |
| CCN(CC)CC#CCOC(=O)C(O)(c1ccccc1)C1CCCCC1 (stereo not shown) [Oxybutynin Chloride] | + (a “+” to indicate whether a particular T2R receptor showed a positive response to a particular API) | + (a “+” to indicate whether a particular T2R receptor showed a positive response to a particular API) | – | + (a “+” to indicate whether a particular T2R receptor showed a positive response to a particular API) | + (a “+” to indicate whether a particular T2R receptor showed a positive response to a particular API) |
| CC(C)(C(=O)O)c1ccc(C(O)CCCN2CCC(C(O)(c3ccccc3)c3ccccc3)CC2)cc1 (stereo not shown) [Fexofenadine] | – | + (a “+” to indicate whether a particular T2R receptor showed a positive response to a particular API) | + (a “+” to indicate whether a particular T2R receptor showed a positive response to a particular API) | + (a “+” to indicate whether a particular T2R receptor showed a positive response to a particular API) | – |
| COc1ccc2c(c1)[C@]13CCCC[C@@H]1[C@H](C2)N(C)CC3 [Dextromethorphan] | + (a “+” to indicate whether a particular T2R receptor showed a positive response to a particular API) | + (a “+” to indicate whether a particular T2R receptor showed a positive response to a particular API) | + (a “+” to indicate whether a particular T2R receptor showed a positive response to a particular API) | + (a “+” to indicate whether a particular T2R receptor showed a positive response to a particular API) | + (a “+” to indicate whether a particular T2R receptor showed a positive response to a particular API) |
| CN(C)CCC(c1ccc(Br)cc1)c1ccccn1 (stereo not shown) [Brompheniramine] | + (a “+” to indicate whether a particular T2R receptor showed a positive response to a particular API) | + (a “+” to indicate whether a particular T2R receptor showed a positive response to a particular API) | + (a “+” to indicate whether a particular T2R receptor showed a positive response to a particular API) | + (a “+” to indicate whether a particular T2R receptor showed a positive response to a particular API) | + (a “+” to indicate whether a particular T2R receptor showed a positive response to a particular API) |
| N=C(NCCCCCCNC(=N)NC(=N)Nc1ccc(Cl)cc1)NC(=N)Nc1ccc(Cl)cc1.O=C(O)[C@H](O)[C@@H](O)[C@H](O)[C@H](O)CO.O=C(O)[C@H](O)[C@@H](O)[C@H](O)[C@H](O)CO [Chlorhexidine Digluconate] | + (a “+” to indicate whether a particular T2R receptor showed a positive response to a particular API) | + (a “+” to indicate whether a particular T2R receptor showed a positive response to a particular API) | + (a “+” to indicate whether a particular T2R receptor showed a positive response to a particular API) | + (a “+” to indicate whether a particular T2R receptor showed a positive response to a particular API) | – |
